Assay results from patent US7994326B2 (Northwestern University, priority 2003, dated 2011).
Read-outs that look alike come from different tables or passages of the source.

How the values were obtained:
Format in all cases: biochemical
rat nNOS = target: T1, rat nNOS (Rattus norvegicus, UniProt P29476); assay: NOS enzyme inhibitory assay (hemoglobin capture), nNOS; details: for IC50: rat nNOS, 10 μM L-arginine
T1 construct: made in house; host or cells: E. coli (plasmid pCWnNOS)
Protocol: (§1) All of the NOS isoforms used were recombinant enzymes overexpressed in E. coli from different sources. Nitric oxide formation from NOS was monitored by the hemoglobin capture assay as described in the literature.
After approximately 48 h of post-induction incubation in the dark at 25° C. the cells were pelleted at 5300×g, transferred to 50 mL conical tubes, and stored at −80° C.
nNOS purification: Cell pellets from 2.0 L of culture were resuspended in sonication Buffer A (50 mM Tris Base Buffer, pH 8.0, 10% glycerol), 2 mg/ml lysozyme. 0.5 mM L-arginine. 1 mM EDTA, 0.1 mM PMSF, 1 µg/ml antipain, and 1 μM each of leupeptin, […], and […]) and lysed by sonication. Centrifugation for 1 h at 100000×g yielded supernatant which contained nNOS active enzyme. The supernatant was brought to 2 mM CaCl2 and the protein was loaded onto a 15 ml calmodulin-Sepharose column equilibrated with Buffer A containing 2 mM CaCl2. The column was washed with 100 ml Buffer B (50 mM Hepes, 5 mM DTT, and […]) containing 2 mM CaCl2, 0.5 mM L-arginine, and 10 μM BH4, and eluted with 30 ml Buffer B supplemented with 0.3 M NaCl, 5 mM EGTA, 0.5 mM L-arginine, and 10 μM BH4. The protein was then loaded onto a 5 ml 2′,5′-ADP-Sepharose column equilibrated with Buffer B supplemented with 0.3 M NaCl, 0.5 mM L-arginine, and 10 μM BH4. The column was washed with 25 ml Buffer B containing 0.5 mM L-arginine and 10 μM BH4, and then 25 ml of Buffer B only supplemented with 10 μM BH4 (without L-arginine). Neuronal NOS was eluted with 20 ml Buffer B supplemented with 10 mM 2′(3′)-AMP, 10 μM BH4 and 0.3 M NaCl. The 20 ml eluent was then concentrated to 5 ml by ultrafiltration. The above concentration operation was repeated twice more with 10 ml Buffer B supplemented with 10 µM BH4 to give the purified neuronal NOS.
Nitric oxide formation from NOS was monitored by the hemoglobin capture assay as described previously.
(§2) The selectivity of an inhibitor is defined as the ratio of the respective Ki values.

murine iNOS = target: T2, murine iNOS (Mus musculus, UniProt P29477); assay: NOS enzyme inhibitory assay (hemoglobin capture), iNOS; details: for IC50: murine iNOS, 10 μM L-arginine
T2 construct: made in house; host or cells: E. coli (plasmid pCWiNOS)
Text: as §1
Enzyme inhibitory assay. All of the NOS isoforms used are recombinant enzymes overexpressed in E. coli from different sources.
iNOS expression: An overnight culture of pCWiNOS was used to inoculate (1:100) larger cultures of Terrific Broth media (12 g/L tryptone, 24 g/L yeast extract, 4 mL/L glycerol, 17 mM KH2PO4, and 72 mM K2HPO4) containing 50 μg/mL ampicillin and 34 μg/mL chloramphenicol at 37° C. At an OD600 of ˜0.5, the culture was cooled to 25° C. and induced by the addition of 1 mM IPTG (final concentration). After approximately 24 h of growth at 25° C., the cells were pelleted at 5300×g, transferred to 50 mL conical tubes, and stored at −80° C.
iNOS purification: Cell pellets from 1.0 L of culture were resuspended in sonication buffer (50 mM Hepes, pH 7.4, 10% glycerol, 10 μg/mL benzamidine, 5 μg/mL leupeptin, 0.2 mM of PMSF, and 1 μg/mL each of pepstatin, chymostatin, and antipain) and lysed by sonication. Centrifugation for 20 min at 13000×g yielded supernatant which contained iNOS active enzyme. iNOS supernatant was loaded onto 1 g of a 2′,5′-ADP-Sepharose 4B resin column. The column was then washed with 20 ml iNOS purification buffer (10 mM K2HPO4, 10% glycerol, 0.5 mM L-arginine, pH 7.4) and 10 μM BH4. Inducible NOS was eluted with 30 ml iNOS purification buffer supplemented with 10 mM 2′(3′)-AMP, 10 μM BH4, and 0.3 M NaCl. The eluent was concentrated to 5 ml by ultrafiltration. The above concentration operation was repeated three times more with 10 ml Hepes buffer supplemented with 10 μM BH4, to give purified inducible NOS.
(§3) Nitric oxide formation from NOS was monitored by the hemoglobin capture assay as described previously. (Hevel, J. M.; Marletta, M. A. Nitric Oxide Synthase Assays. Methods Enzymol. 1994, […], 250-258).
as §2

bovine eNOS = target: T3, bovine eNOS (Bos taurus, UniProt P29473); assay: NOS enzyme inhibitory assay (hemoglobin capture), eNOS; details: for IC50: bovine eNOS, 10 μM L-arginine, * = no inhibition observed up to the concentration listed
T3 construct: made in house; host or cells: E. coli (plasmid Bov-eNOSpCW)
Protocol: as §1
Expression of bovine eNOS: An overnight culture of Bov-eNOSpCW was used to inoculate 0.5 liter (in a 2.8-liter Fernbach flask) of modified TB (20 g of yeast extract, 10 g of bacto-tryptone, 2.65 g of KH2PO4, 4.33 g of Na2HPO4 and 4 ml of glycerol per liter) containing ampicillin ([…]) and chloramphenicol ([…]). The cultures were grown to an OD600 of z0.8 at 22° C. (200 rpm) and induced with 0.5 mM IPTG. One hour before IPTG induction, d-aminolevulinic acid (0.5 mM final) was added and, at the time of IPTG induction, riboflavin ([…]) and ATP (1 mM final) were also added. After induction, the flasks were kept in the dark at 22° C. (200 rpm). The cells were harvested 48 h after induction, and the cell pellet was frozen at −80° C. until purification was carried out.
Purification of bovine eNOS. The purification was typically carried out with eNOS from 2 liters of E. coli culture. The eNOS protein was purified using a modification of the published protocol for nNOS (14). The cells were resuspended in buffer C [50 mM Tris-Cl, pH 7.8, 1 mM EDTA, 1 mM DTT, 10% glycerol (v/v), 150 mM NaCl, 0.1 mM phenylmethylsulfonyl fluoride, […]], lysed by pulsed sonication and then centrifuged to sediment the cell debris. The supernatant was applied to a 2′,5′-ADP Sepharose 4B column equilibrated in buffer D [50 mM Tris-Cl, pH 7.8, 0.1 mM EDTA, 0.1 mM dithiothreitol, 150 mM NaCl, 10% glycerol (v/v)]. The column was washed with 20 column volumes of buffer B and again with 20 column volumes of buffer B containing 600 mM NaCl. Finally, protein was eluted with buffer B containing 600 mM NaCl and 5 mM 2′-AMP. The fractions were screened for absorption in the Soret region (A400) and hemoprotein-containing fractions were pooled and concentrated (Centriprep 50, Amicon). Repeated dilution/concentration [50 mM Tris-Cl, pH 7.8, 0.1 mM EDTA, 0.1 mM dithiothreitol, 10% glycerol (vol/vol)] was used to reach a final concentration of 150 mM NaCl and commensurately reduce the 2′-AMP content. […] The purified eNOS is stored in the presence of 1 mM L-arginine.
eNOS washing: eNOS contains a significant amount of L-arginine, which will interfere with the enzyme assay. The L-arginine can be removed by several dilution and concentration steps using an Amico concentrator. The dilution buffer is 10 ml Tris-HCl 50 mM containing 0.1 mM EDTA, 400 mM NaCl, 10% glycerol and 1 mM beta-mercaptoethanol. The above dilution and concentration operation was repeated three times to give purified eNOS.
as §3, §2

[1] = Table 1a, apparent Ki calculated from IC50, Km […], read-out: calc. Ki nNOS
[2] = Table 1a, apparent Ki calculated from IC50, Km […], read-out: calc. Ki iNOS
[3] = Table 1a, apparent Ki calculated from IC50, Km 1.7 μM, read-out: calc. Ki eNOS
[4] = Table 1b, ratio of Ki values eNOS/nNOS
[5] = Table 1b, ratio of Ki values iNOS/nNOS

Row | Structure (SMILES) | Selectivity n/e (rat nNOS; Table 1a, Ki(eNOS)/Ki(nNOS)) | Selectivity n/i (rat nNOS; Table 1a, Ki(iNOS)/Ki(nNOS)) | Ki (rat nNOS; [1]) [µM] | IC50 (rat nNOS; Table 1a) [µM] | Ki (murine iNOS; [2]) [µM] | IC50 (murine iNOS; Table 1a) [µM] | Ki (bovine eNOS; [3]) [µM] | IC50 (bovine eNOS; Table 1a) [µM] | Selectivity n/e (rat nNOS; [4]) | Selectivity n/i (rat nNOS; [5]) | Ki (rat nNOS; Table 1b, read-out: Ki nNOS) [µM] | Ki (murine iNOS; Table 1b, read-out: Ki iNOS) [µM] | Ki (bovine eNOS; Table 1b, read-out: Ki eNOS) [µM]
1 | Nc1cccc(CC2CNCC2NCC(N)Cc2ccccc2)n1 (racemic) [Compound P-32] | >632 | 129.09 | 2.3 | 20 | 297 | 655 | > 1450 | > 10000 |  |  |  |  | 
2 | Nc1cccc(C[C@H]2CNC[C@H]2NCCNCc2ccccc2)n1 (racemic) [Compound P-33] | >8619.5 | 136.36 | 1.18 | 10.2 | 161 | 355 | > 10200 | > 70000 |  |  |  |  | 
3 | Nc1cccc(CC2CNCC2NC2CCNC2)n1 (racemic) [Compound P-34] | 192.54 | 138.06 | 1.26 | 11 | 174 | 384 | 243 | 1670 |  |  |  |  | 
4 | Nc1cccc(CC2CNCC2NC2CCNC2)n1 (racemic) [Compound P-35] | 311.85 | 146.75 | 1.36 | 11.8 | 200 | 440 | 424 | 2920 |  |  |  |  | 
5 | Cc1cc(N)nc(C[C@H]2CNC[C@H]2NCCN)c1.Cl.Cl.Cl.Cl (racemic) [Compound P-46] | 2462.2 | 58 | 0.095 | 0.83 | 5.5 | 12.1 | 234 | 1610 |  |  |  |  | 
6 | Cc1cc(N)nc(C[C@H]2CNC[C@@H]2NCCN)c1.Cl.Cl.Cl.Cl (racemic) [Compound P-47] | 430.7 | 52.5 | 0.61 | 5.34 | 32 | 70.6 | 263 | 1810 |  |  |  |  | 
7 | Cc1cc(N)nc(C[C@H]2CNC[C@H]2NCCNCc2ccc(C(F)(F)F)cc2)c1.Cl.Cl.Cl.Cl (racemic) [Compound P-50] |  |  |  |  |  |  |  |  | 428.4 | 71.5 | 0.197 | 14.1 | 84.4
8 | Cc1cc(N)nc(C[C@H]2CNC[C@H]2NCCNCc2ccc(F)cc2)c1.Cl.Cl.Cl.Cl (racemic) [Compound P-51] |  |  |  |  |  |  |  |  | 904.5 | 55.4 | 0.144 | 7.97 | 130
